Experimental findings from ChEMBL document CHEMBL1201862, “PubChem BioAssay data set” (2004) are described below.

Assay in all cases: NCI tumour cell line growth inhibition, 48 h
The subject of assay [1] is 786-0.
In assay [2] the test system is CCRF-CEM.
In assay [3] the test system is EKVX.
Assay [4] has as its system HCT-15.
The test system of assay [5] is HOP-92.
The subject of assay [6] is HT-29.
Assay [7] concerns NCI-H522.
Assay [8] has as its system OVCAR-3.
The test system of assay [9] is SK-MEL-28.
Assay [10] concerns SNB-19.
Assay [11] concerns SR.
The test system of assay [12] is SW-620.
The test system of assay [13] is HCT-116.
In assay [14] the test system is RPMI-8226.
The test system of assay [15] is SNB-75.
Assay [16] relates to A498.

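Interpolation was linear, between the two tested concentrations surrounding the appropriate level; five concentrations were tested over 48 hours in 96-well plates. GI50 is the concentration that inhibits growth by half.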 Calls of active or inactive are those of the source. Cut-off read from the data, not from the text of the source: active = GI50 up to about 1.1 µM and inactive = higher.

On to `O=C(N/C(=C\c1ccc(Oc2ccc(Cl)c(Cl)c2)cc1)c1nc2ccccc2[nH]1)c1ccccc1`, for which the GI50 in assay [1] was 17.3 µM (inactive); in assay [2] it was 17.1 µM (inactive); in assay [3], 22 µM (inactive); in assay [4], 23.2 µM; in assay [5], 10.4 µM (inactive); in assay [6], 15.5 µM (inactive). Also, the GI50 in [7] is 15.9 µM (inactive); in [8], 17.3 µM (inactive); in [9], 18.4 µM (inactive); in assay [10], 15.6 µM (inactive); in [11], 25.6 µM (inactive); in assay [12], 16.6 µM (inactive).
On to `Cc1csc(CCC(N)C(=O)O)n1` (stereo not drawn), for which the GI50 was > 100 µM (inactive) in [1]; > 100 µM (inactive) in [2]; > 100 µM (inactive) in [3]; > 100 µM (inactive) in [13]; above 100 µM in [4]; > 100 µM (inactive) in assay [5]. The GI50 in assay [6], in [7], in assay [8], in [14], in [9] and in assay [15] was > 100 µM (inactive) each time. For the same compound, the GI50 in [12] was > 100 µM (inactive).
On to `O=C1CCC(=O)c2c1c(O)c1ccncc1c2O`, for which the GI50 in assay [1] is 15.7 µM (inactive); in [2], 14.8 µM (inactive); in [3] it was 27.8 µM (inactive); in assay [13] it was 14.7 µM (inactive); in assay [4], 12.9 µM; in assay [5] it was 22.8 µM (inactive). Also, the GI50 in [6] is 6.62 µM (inactive); in [7] it was 12 µM (inactive); in [8], 2.88 µM (inactive); in assay [14] it was 17.5 µM (inactive); in assay [9], 20.5 µM (inactive); in assay [10], 26 µM (inactive). Also, the GI50 was 18.7 µM (inactive) in assay [15], 13 µM (inactive) in [11] and 16.4 µM (inactive) in assay [12].
In the case of `CCN(CC)CCn1c2ccccc2c(=O)c2c(OC)ccc(OC)c21`, the GI50 in assay [1] was 69.5 µM (inactive); in [16] it was 97.5 µM (inactive); in assay [2] it was 46.6 µM (inactive); in [3] it was > 100 µM (inactive); in assay [13] it was 37.9 µM (inactive); in [4], 57.5 µM. The GI50 is > 94.2 µM (inactive) in assay [5]; 46.9 µM (inactive) in assay [6]; > 96.4 µM (inactive) in assay [7]; > 100 µM (inactive) in assay [8]; 92.3 µM (inactive) in [14]; > 100 µM (inactive) in assay [10]. Also, the GI50 in [11] is 32.2 µM (inactive); in assay [12] it was 6.59 µM (inactive).
For the compound `COc1ccc(/C=C/C(=O)c2sc(N)nc2C)cc1`, the GI50 in assay [1] was > 100 µM (inactive); in [16], > 100 µM (inactive); in [2] it was > 100 µM (inactive); in assay [3], > 100 µM (inactive); in assay [4], above 100 µM; in assay [5], > 100 µM (inactive). Further, the GI50 in assay [6] was > 100 µM (inactive); in assay [7] it was > 100 µM (inactive); in assay [8], 41 µM (inactive); in assay [14], > 100 µM (inactive); in assay [9] it was > 100 µM (inactive); in assay [10] it was > 100 µM (inactive). For the same compound, the GI50 in [15] and in [12] was > 100 µM (inactive) throughout.
In the case of `O=C(/C=C/c1ccc(Cl)c(Cl)c1)c1cccc2ccccc12`, the GI50 was 3.4 µM (inactive) in assay [1]; 22.5 µM (inactive) in [16]; 2.53 µM (inactive) in assay [2]; 18.4 µM (inactive) in assay [3]; 3.23 µM (inactive) in assay [13]; 2.54 µM in assay [4]. Also, the GI50 in assay [5] is 16.8 µM (inactive); in assay [6], 3.59 µM (inactive); in assay [7], 2.97 µM (inactive); in assay [8], 6.32 µM (inactive); in assay [14], 2.29 µM (inactive); in assay [9], 17.8 µM (inactive). In addition, the GI50 in [10] was 6.85 µM (inactive); in assay [15] it was 3.51 µM (inactive); in [12], 1.71 µM (inactive).
For the compound `NC(=O)N/N=C(\CC1OC(=O)c2ccccc21)c1ccco1` (stereo not drawn), the GI50 in assay [1] was 92.9 µM (inactive); in [16], > 100 µM (inactive); in [2] it was > 100 µM (inactive); in assay [3], > 100 µM (inactive); in assay [13], > 100 µM (inactive); in [4], above 100 µM. Also, the GI50 in assay [5], in assay [6], in [7], in assay [8], in assay [9] and in assay [10] was > 100 µM (inactive) throughout. Moreover, the GI50 in [15] and in assay [12] was > 100 µM (inactive) each time.
For `CCC(CC)n1c(C)nc2c1C(=O)c1ccccc1C2=O`, the GI50 was 57.1 µM (inactive) in [1]; 42.6 µM (inactive) in assay [2]; 70.5 µM (inactive) in assay [3]; 19.3 µM (inactive) in [13]; 9.18 µM in assay [4]; 22.5 µM (inactive) in assay [5]. Besides, the GI50 is 33.2 µM (inactive) in assay [6]; 48.1 µM (inactive) in assay [7]; 26 µM (inactive) in assay [8]; 49.3 µM (inactive) in assay [9]; 71.1 µM (inactive) in [10]; 20.6 µM (inactive) in assay [15]. Moreover, the GI50 is 25.8 µM (inactive) in assay [11] and 52.2 µM (inactive) in assay [12].
`COC(=O)C(C(=O)C(=O)Nc1nc2ccc([N+](=O)[O-])cc2s1)c1nc2ccc(Cl)cc2nc1O` (stereo not drawn): the GI50 in assay [1] is > 100 µM (inactive); in [16], 21.2 µM (inactive); in assay [2], > 100 µM (inactive); in assay [3] it was > 100 µM (inactive); in assay [13] it was > 100 µM (inactive); in assay [4], above 100 µM. In addition, the GI50 in assay [6], in [7], in assay [8], in assay [14], in assay [9] and in assay [10] was > 100 µM (inactive) each time. Moreover, the GI50 in [15] was 52 µM (inactive); in [11], > 100 µM (inactive); in [12], > 100 µM (inactive).
For `CCCCCCCCCCCCn1[nH]c(C)c(C(=S)SCCCCCCCC)c1=O`, the GI50 is 45.4 µM (inactive) in assay [1]; > 100 µM (inactive) in [16]; 28.1 µM (inactive) in assay [2]; 43.9 µM (inactive) in assay [3]; 29.6 µM (inactive) in assay [13]; 21 µM in assay [4]. Moreover, the GI50 was > 100 µM (inactive) in assay [5]; 76.2 µM (inactive) in assay [6]; 31.9 µM (inactive) in assay [7]; 34.8 µM (inactive) in assay [8]; > 100 µM (inactive) in [9]; > 82.8 µM (inactive) in assay [10]. For the same compound, the GI50 was > 100 µM (inactive) in assay [15] and 35.2 µM (inactive) in [12].
Turning to `COC(=O)C1=NC(=S)NC(c2ccccc2)C1c1nc2ccccc2o1` (stereo not drawn), the GI50 in [1] is > 50 µM (inactive); in assay [16], > 50 µM (inactive); in assay [2] it was > 50 µM (inactive); in assay [3], > 50 µM (inactive); in assay [13], > 50 µM (inactive); in [4], above 50 µM. Moreover, the GI50 in assay [5], in [6], in [7], in assay [8], in assay [14] and in assay [10] was > 50 µM (inactive) each time. Moreover, the GI50 in assay [11] and in assay [12] was > 50 µM (inactive) throughout.
`N#C/C(=C\c1ccc2ccccc2c1)c1ccccc1`: the GI50 is 18.9 µM (inactive) in assay [1]; 23.6 µM (inactive) in assay [16]; 32.5 µM (inactive) in assay [2]; 30.3 µM (inactive) in assay [13]; 23.6 µM in assay [4]; 65.9 µM (inactive) in assay [5]. Moreover, the GI50 is 26.7 µM (inactive) in assay [6]; 12 µM (inactive) in assay [7]; 13 µM (inactive) in assay [8]; 53.1 µM (inactive) in assay [14]; 45.4 µM (inactive) in [9]; 23.2 µM (inactive) in assay [15]. Besides, the GI50 in assay [11] is 46.8 µM (inactive); in [12] it was 28.8 µM (inactive).
Take `Cc1ccc(NC(=O)CCC(CC(=O)C(C)(C)C)=NNC(=O)C(=O)NN)cc1C`: the GI50 in [1] was > 100 µM (inactive); in assay [2] it was > 100 µM (inactive); in assay [3], > 100 µM (inactive); in [4], above 100 µM; in assay [6], > 100 µM (inactive); in assay [7] it was > 100 µM (inactive). The GI50 in assay [8], in [14], in assay [9], in assay [10], in assay [15] and in assay [12] was > 100 µM (inactive) each time.
Take `Cc1ccc(/N=N/c2ccc(N(CCC#N)CCC#N)cc2C)c(Br)c1`: the GI50 is 17 µM (inactive) in [1]; 51.9 µM (inactive) in assay [16]; 5.85 µM (inactive) in assay [2]; 41 µM (inactive) in assay [3]; 2.78 µM in assay [4]; 3.53 µM (inactive) in assay [6]. Further, the GI50 in assay [7] is 18.5 µM (inactive); in [8], 32.6 µM (inactive); in assay [14], 4.33 µM (inactive); in assay [9], 51.3 µM (inactive); in assay [10] it was 32.4 µM (inactive); in assay [15], 11.3 µM (inactive). Besides, the GI50 in assay [12] is 21.9 µM (inactive).
On to `CC(C)[C@H]1CO[C@@H]2O[C@H](C)CC(=O)N21`, for which the GI50 in [1] was > 100 µM (inactive); in [2], > 100 µM (inactive); in assay [3], > 100 µM (inactive); in [13], > 100 µM (inactive); in assay [4] it was above 100 µM; in [5], > 100 µM (inactive). For the same compound, the GI50 in [6], in [7], in assay [8], in assay [14], in [9] and in assay [10] was > 100 µM (inactive) in each case. The GI50 in [15], in assay [11] and in [12] was > 100 µM (inactive) in each case.
